Assay results as given in patent US20140088306A1, “RADIOACTIVE FLUORINE-LABELED QUINOXALINE COMPOUND” (Nihon Medi-Physics Co., Ltd., priority 2012, published 2014).

How the values were obtained:
amyloid plaques = assay: Autoradiography using postmortem brain section of patient with Alzheimer's disease (Example 7); assay type: binding, human (Alzheimer's disease patient); details: brain section (temporal lobe) of Alzheimer's disease patient; 0.37 MBq/100 μL, 1 hour
Experimental: A postmortem autopsy brain section (temporal lobe) of a patient with Alzheimer's disease was incubated together with each of [^18F]E3, [^18F]D3, [^18F]E1, and [^18F]E2 (0.37 MBq/100 μL each) at room temperature for 1 hour. The resultant was washed with a 50 volume % ethanol aqueous solution (2 minutes×2) and water (2 minutes×2), and after drying, the section was contacted with BAS imaging plate (from Fujifilm Corporation) for 1.5 hours. The image of autoradiography was obtained using BAS5000 scanner system (from Fujifilm Corporation).
A section adjacent to the brain section used was immunostained in the following manner.
First, a paraffin-embedded brain section of the Alzheimer's disease patient (temporal lobe, 6 μm in thickness) was incubated with xylene (15 minutes×2), ethanol (1 minute×2), a 90 volume % ethanol aqueous solution (1 minute×2), and a 70 volume % ethanol aqueous solution (1 minute×1) in that order for complete deparaffinization, and then washed in water (2.5 minutes×2). Thereafter, the section was subjected to autoclave treatment for 15 minutes in 0.01 mol/L citrate buffer solution (pH 6.0). The resultant was incubated in PBS-Tween20 (5 minutes×2), and a mouse anti-Aβ1-42 primary monoclonal antibody (from Wako Pure Chemical Industries Ltd.) was then added thereto, which was then incubated at room temperature overnight. The resultant was incubated in PBS-Tween20 (2 minutes×3), and a biotin-goat anti-mouse IgG (from Funakoshi Co., Ltd.) was then added thereto, which was then incubated at room temperature for 1 hour. The resultant was incubated in PBS-Tween20 (5 minutes×3), and a streptavidin-peroxidase complex (from Funakoshi Co., Ltd.) was added thereto, which was then incubated at room temperature for 30 minutes. In addition, the resultant was incubated in PBS-Tween20 (2 minutes×3); 3,3′-diaminobenzidine was added thereto, which was then incubated at room temperature for 30 minutes; and after washing with water, the section was observed under a microscope to provide an immunostained image (FIG. 10).

[1] = system: amyloid plaques in the brain; assay: Ex vivo autoradiography using Alzheimer's disease model mouse (Example 9); assay type: in vivo; details: Tg2576 mouse (24-month old) vs normal mouse; tail vein; 1 hour after administration
Experimental: To confirm whether the compound 2 has the performance capable of visualizing amyloid plaques in the brain, an image was taken by ex vivo autoradiography in a Tg2576 mouse as one of Alzheimer's disease model animals.
[^18F]D3 (55.5 MBq (1.5 mCi)/200 μL) was administered to a Tg2576 mouse (24-month old, female) and a normal mouse (24-month old, female) through their tail vein. Each mouse was sacrificed 1 hour after administration, and the brain was removed, embedded in a carboxymethylcellulose solution, and frozen in a dry ice-hexane bath, followed by preparing frozen sections having a thickness of 30 μm using a cryostat (Leica). The resultant brain tissue sections were each placed on an imaging plate (Model BAS-SR, from Fujifilm Corporation) for 30 minutes for exposure, and the respective autoradiographs were obtained using an image analyzer (Bio Imaging Analyzer Model BAS5000, from Fujifilm Corporation). The same sections were each stained with thioflavin S ([…]), washed, and observed under a fluorescent microscope.

[2] = In vivo radioactivity distribution experiment (Example 8); details: ddY mice, tail vein, SD in parenthesis
Experimental: Through the tail vein of ddY mice (male, 5 week-old) was injected each of a 10 volume % ethanol-containing saline solution of [^18F]E3 (45.4 kBq, 100 μL), a 10 volume % ethanol-containing saline solution of [^18F]D3 (38.2 kBq, 100 μL), a 10 volume % ethanol-containing saline solution of [^18F]E1 (45.1 kBq, 100 μL), and a 10 volume % ethanol-containing saline solution of [^18F]E2 (40.6 kBq, 100 μL). Five mice were used for each group and sacrificed 2, 10, 30, and 60 minutes after administration to remove major organs. The blood and organs were weighed and further measured for radioactivity using a γ counter. The amount of radioactivity per unit mass was measured in each organ to evaluate radioactivity distribution.

amyloid plaques in the brain, sequence (P05067 672-711 limits assumed): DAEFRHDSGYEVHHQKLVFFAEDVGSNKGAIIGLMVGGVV
amyloid plaques, sequence (P05067 672-711 limits assumed): as above

4-(6-(2-[^18F]Fluoroethoxy)quinoxalin-2-yl)-N,N-dimethylaniline [[^18F]D3]
visualization of gray matter / amyloid plaques by autoradiography (amyloid plaques): amyloid plaques were visualized
visualization of amyloid plaques in the brain, ex vivo autoradiography [1]: could visualize amyloid plaques in the brain
Radioactivity Amount, Blood ([2]; 2 min. after): 2.66 (0.50) % injected dose/g
Radioactivity Amount, Blood ([2]; 10 min. after): 2.29 (0.25) % injected dose/g
Radioactivity Amount, Blood ([2]; 30 min. after): 2.98 (0.29) % injected dose/g
Radioactivity Amount, Blood ([2]; 60 min. after): 3.26 (0.37) % injected dose/g
Radioactivity Amount, Bone ([2]; 2 min. after): 2.65 (0.61) % injected dose/g
Radioactivity Amount, Bone ([2]; 10 min. after): 2.75 (0.36) % injected dose/g
Radioactivity Amount, Bone ([2]; 30 min. after): 2.82 (0.78) % injected dose/g
Radioactivity Amount, Bone ([2]; 60 min. after): 2.77 (1.27) % injected dose/g
Radioactivity Amount, Brain ([2]; 2 min. after): 5.67 (0.48) % injected dose/g
Radioactivity Amount, Brain ([2]; 10 min. after): 6.39 (0.51) % injected dose/g
Radioactivity Amount, Brain ([2]; 30 min. after): 3.73 (0.50) % injected dose/g
Radioactivity Amount, Brain ([2]; 60 min. after): 2.61 (0.37) % injected dose/g
Radioactivity Amount, Heart ([2]; 2 min. after): 8.50 (1.40) % injected dose/g
Radioactivity Amount, Heart ([2]; 10 min. after): 4.19 (0.47) % injected dose/g
Radioactivity Amount, Heart ([2]; 30 min. after): 3.29 (0.68) % injected dose/g
Radioactivity Amount, Heart ([2]; 60 min. after): 3.74 (0.72) % injected dose/g
Radioactivity Amount, Intestine ([2]; 2 min. after): 2.56 (0.10) % injected dose/g
Radioactivity Amount, Intestine ([2]; 10 min. after): 5.27 (0.27) % injected dose/g
Radioactivity Amount, Intestine ([2]; 30 min. after): 9.82 (1.43) % injected dose/g
Radioactivity Amount, Intestine ([2]; 60 min. after): 12.3 (0.79) % injected dose/g
Radioactivity Amount, Kidney ([2]; 2 min. after): 10.7 (0.96) % injected dose/g
Radioactivity Amount, Kidney ([2]; 10 min. after): 6.66 (0.45) % injected dose/g
Radioactivity Amount, Kidney ([2]; 30 min. after): 4.19 (0.78) % injected dose/g
Radioactivity Amount, Kidney ([2]; 60 min. after): 3.30 (0.39) % injected dose/g
Radioactivity Amount, Liver ([2]; 2 min. after): 10.3 (1.00) % injected dose/g
Radioactivity Amount, Liver ([2]; 10 min. after): 9.83 (0.22) % injected dose/g
Radioactivity Amount, Liver ([2]; 30 min. after): 6.91 (0.81) % injected dose/g
Radioactivity Amount, Liver ([2]; 60 min. after): 6.65 (0.90) % injected dose/g
Radioactivity Amount, Lung ([2]; 2 min. after): 8.94 (1.76) % injected dose/g
Radioactivity Amount, Lung ([2]; 10 min. after): 4.59 (1.07) % injected dose/g
Radioactivity Amount, Lung ([2]; 30 min. after): 3.51 (0.44) % injected dose/g
Radioactivity Amount, Lung ([2]; 60 min. after): 3.39 (0.14) % injected dose/g
Radioactivity Amount, Pancreas ([2]; 2 min. after): 6.55 (0.63) % injected dose/g
Radioactivity Amount, Pancreas ([2]; 10 min. after): 4.74 (0.42) % injected dose/g
Radioactivity Amount, Pancreas ([2]; 30 min. after): 2.73 (0.50) % injected dose/g
Radioactivity Amount, Pancreas ([2]; 60 min. after): 2.74 (0.19) % injected dose/g
Radioactivity Amount, Spleen ([2]; 2 min. after): 2.86 (0.66) % injected dose/g
Radioactivity Amount, Spleen ([2]; 10 min. after): 4.09 (0.33) % injected dose/g
Radioactivity Amount, Spleen ([2]; 30 min. after): 2.66 (0.57) % injected dose/g
Radioactivity Amount, Spleen ([2]; 60 min. after): 3.07 (0.68) % injected dose/g
Radioactivity Amount, Stomach* ([2]; 2 min. after): 1.09 (0.05) % injected dose per organ
Radioactivity Amount, Stomach* ([2]; 10 min. after): 1.64 (0.28) % injected dose per organ
Radioactivity Amount, Stomach* ([2]; 30 min. after): 1.98 (0.47) % injected dose per organ
Radioactivity Amount, Stomach* ([2]; 60 min. after): 2.06 (0.46) % injected dose per organ
